The values that follow come from US9610277B2, “Formula comprising a hypolipidemic agent” (Cadila Healthcare Limited, priority 2013, dated 2017).

Assay type in all cases: physicochemical
The nature of data set [1]: Stability of API at 40° C./75% RH (percent purity). The text has this:
(§1) Therefore the inventors of the present invention have tried to develop a stable formulation of API such that the API is protected and cannot absorb moisture.

The nature of data set [2]: Moisture absorption of API at 40° C./75% RH (water by KF).
Text: as §1

Data set [3] in a line: Sulfoxide impurity level over six months. The text has this:
Further, one of the impurity (sulfoxide) which was being generated in API increases from 0.17% to 0.76% over a period of 6 months. […] Therefore stabilization of compositions containing compounds of formula (I) can be made by maintaining the microenvironmental pH of composition above 7 by using suitable alkalinizers. Use of a suitable antioxidant(s) and chelating agent(s) further stabilizes the formulation.

Data set [4] in a line: pH degradation of API in standard pH buffers (sulfoxide impurity at 0.3 RRT). To be noted: different standard pH buffers, after 24 hours. Here is the method: FIG. 1: Percentage of sulfoxide impurity level (0.3 RRT) at different pH after 24 hours.
When the pH was modulated by addition of alkalinizer(s) then sulfoxide impurity level in API is restricted.
About 1% w/v aqueous dispersion of tablets was used for pH measurement. pH degradation can be seen with API when kept in different standard pH buffers.

“Also recorded” adds a separate entry of the source.

As to `CCO[C@@H](Cc1ccc(OCCn2c(C)ccc2-c2ccc(SC)cc2)cc1)C(=O)O` [API, Saroglitazar Magnesium], the “Percent Purity” value worked out at 98.10% in data set [1] (1 Month), 97.93% in data set [1] (2 Month), 97.17% in data set [1] (3 Month) and 98.48% in data set [1] (Initial). The Water By KF in data set [2] (1 Month) is 1.17%; in data set [2] (2 Month), 2.32%; in data set [2] (3 Month), 2.57%; in data set [2] (Initial), 0.62%. Moreover, the sulfoxide impurity level is 0.76% in data set [3] (after 6 months) and 0.17% in data set [3] (start of the six month period). In addition, the “Percentage individual impurity at 0.3 RRT (Sulphoxide impurity)” value in data set [4] is recorded as “restricted; also recorded: decreases as the solution of pH increases above pH 7”.
